Data as given in PubChem BioAssay AID602234 (The Scripps Research Institute Molecular Screening Center, 2012).
Active and inactive are the calls of the source. The rule behind the calls is not given here.

Assay: NCOA3 reporter inhibition potency – cell-based, luminescence, counter-screen for SRC1 inhibitor project, dose response (AID 602234);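 note: HEK293 cells co-transfected with pGL4.31 reporter and pBIND-SRC3 fusion vector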
Conditions: transfected HEK293 cells, counter-screen luciferase reporter

**Q.** Which IC50 does the source give for CCOC(=O)c1cccc2c1-c1ccccc1/C2=N/O here?
**A.** 3.73 µM

**Q.** Which IC50 does the source give for CC1CCCCN1c1ncnc2ccccc12 (stereo not given) here?
**A.** 8.39 µM

**Q.** With C=CCn1c(Oc2ccccc2F)nc2c1c(=O)n(C)c(=O)n2C as the compound, how does the IC50 read?
**A.** 3.36 µM

**Q.** Which IC50 does the source give for CCC(=O)c1ccc(Oc2nc3c(c(=O)n(C)c(=O)n3C)n2CC)cc1 here?
**A.** 2.87 µM

**Q.** Which IC50 does the source give for CC(C)(C)NC(=O)C1(C)CCC(=O)N1CCCn1ccnc1 (stereo not given) here?
**A.** 4.51 µM

**Q.** Which IC50 does the source give for COc1cc(C(=O)N/N=C(\c2ccccc2)c2ccccn2)cc(OC)c1OC here?
**A.** 9.58 µM

**Q.** For O=C(N/N=C/c1coc2ccc(Cl)cc2c1=O)c1ccc(O)cc1, which IC50 is on record?
**A.** 3.61 µM

**Q.** For CCOc1cc(C(N)=O)cc(Br)c1OC, which IC50 is on record?
**A.** 6.86 µM

**Q.** With CCN(CC)CCNC(=O)c1ccc(NC(=O)C2CCN(c3ncnc4sc(C)c(C)c34)CC2)cc1 as the compound, how does the IC50 read?
**A.** 3.94 µM

**Q.** Which IC50 does the source give for COc1cc2c3c([nH]c2cc1F)C(=O)NCC3 here?
**A.** 3.73 µM

**Q.** Which IC50 does the source give for COc1ccc(OC)c(/C=C2\NC(=O)NC2=O)c1 here?
**A.** 5.99 µM

**Q.** Which IC50 does the source give for O=C(N/N=C(\c1ccccc1)c1ccccn1)c1ccccc1Cl here?
**A.** 4.57 µM

**Q.** For C=C1C(=O)[C@@]23C[C@H]4[C@@H]5[C@@]6(C)CCC[C@@]57[C@@H]2[C@@H](O)[C@@H]1C[C@H]3[C@H]7N4C6, which IC50 is on record?
**A.** 4.39 µM

**Q.** Which IC50 does the source give for O=[N+]([O-])c1ccc2c(c1)-c1ccccc1C2=NO here?
**A.** 3.34 µM

**Q.** For O=C(CSc1nc(-c2cccs2)cc(C(F)(F)F)n1)Nc1cc(OCC(F)(F)C(F)F)cc([N+](=O)[O-])c1, which IC50 is on record?
**A.** > 35.9 µM (inactive)

**Q.** For O=[N+]([O-])c1cccc2c1ccc1ncccc12, which IC50 is on record?
**A.** 10.3 µM (inactive)

**Q.** For CCCc1cc(C(=O)N(C)CC(=O)Nc2ccc(OCC)c(OCC)c2)sc1C, which IC50 is on record?
**A.** > 35.9 µM (inactive)

**Q.** Which IC50 does the source give for N#Cc1c(-c2ccccc2)c(C#N)c2nc3ccccc3n2c1N here?
**A.** 21.9 µM (inactive)

**Q.** For Cc1ccc(N(Cc2cc(=O)[nH]c3ccccc23)C(=O)CCl)c(C)c1, which IC50 is on record?
**A.** 2.67 µM

**Q.** Which IC50 does the source give for O=C(Nc1cccc(Cl)c1)Nc1nnc(-c2ccncc2)s1 here?
**A.** 3.62 µM

**Q.** With N#Cc1cc2ccncc2c2ccccc12 as the compound, how does the IC50 read?
**A.** 4.76 µM

**Q.** Which IC50 does the source give for COC(=O)c1cccc2c1-c1ccccc1/C2=N/O here?
**A.** 2.57 µM

**Q.** Which IC50 does the source give for CCCCC(CC)COCCCN=Cc1c(O)[nH]c(=S)[nH]c1=O (stereo not given) here?
**A.** 5.74 µM

**Q.** With CC(=O)NC(c1cc(Cl)c2cccnc2c1O)C1CC1 (stereo not given) as the compound, how does the IC50 read?
**A.** 6.13 µM

**Q.** With O=C(N/N=C/c1ccccc1O)/C(=C/c1ccccc1)CCO as the compound, how does the IC50 read?
**A.** 5.52 µM

**Q.** For CCN(Cc1ccncc1)C(=O)CC1C(=O)NCCN1Cc1ccc(F)c(F)c1 (stereo not given), which IC50 is on record?
**A.** 4.94 µM

**Q.** For CC(C)n1c(SCC(=O)Nc2nc3c(s2)CCCC3)nc2c1c(=O)n(C)c(=O)n2C, which IC50 is on record?
**A.** 5.86 µM

**Q.** With CS(=O)(=O)Nc1cccc(NC(=O)C2Cc3c(-c4ccco4)ccnc3O2)c1 (stereo not given) as the compound, how does the IC50 read?
**A.** > 12 µM (inactive)

**Q.** With O=C(Nc1c(-c2ccccc2)[nH][nH]c1=O)c1cccc(C(F)(F)F)c1 as the compound, how does the IC50 read?
**A.** > 35.8 µM (inactive)

**Q.** Which IC50 does the source give for O=C(Nc1ccncc1)c1ccccc1[N+](=O)[O-] here?
**A.** 4.77 µM

**Q.** For O=C(CCl)NC(Cc1ccccc1)c1ccccc1 (stereo not given), which IC50 is on record?
**A.** 6.42 µM

**Q.** With Cn1nc(C(F)(F)F)c(C#N)c1N1CCN(c2ccccc2)CC1 as the compound, how does the IC50 read?
**A.** 4.13 µM

**Q.** With Cc1c(/C(O)=C2/C(=O)C(=O)N(Cc3cccnc3)C2c2ccccn2)cnn1-c1ccccc1 (stereo not given) as the compound, how does the IC50 read?
**A.** 6.55 µM

**Q.** Which IC50 does the source give for O=C(CCn1cnc(-c2ccccc2)c1-c1ccccc1)N/N=C/c1ccccc1O here?
**A.** 12.2 µM (inactive)

**Q.** Which IC50 does the source give for CCOC(=O)CC(=O)CSc1nccc(-c2cccnc2)n1 here?
**A.** 18.4 µM (inactive)

**Q.** For Cc1c(C(=O)N/N=C/C(C)C)[nH]c2ccc([N+](=O)[O-])cc12, which IC50 is on record?
**A.** 17 µM (inactive)

**Q.** Which IC50 does the source give for c1cc2c(cn1)cnc1cscc12 here?
**A.** 4.51 µM

**Q.** Which IC50 does the source give for COc1ccccc1CNC(=O)C(=O)NCCC1CCCCN1S(=O)(=O)c1ccc(C)cc1 (stereo not given) here?
**A.** 10.2 µM (inactive)

**Q.** Which IC50 does the source give for NC(=S)NN=Cc1ccc(OC(=O)COc2cc(Cl)c(Cl)cc2Cl)cn1 here?
**A.** 7.06 µM

**Q.** With NC(=S)NN=Cc1nccc2ccccc12 as the compound, how does the IC50 read?
**A.** 0.434 µM

**Q.** For Cc1ccc(OCC(=O)c2cc(C)n(-c3ccccc3)c2C)c([N+](=O)[O-])n1, which IC50 is on record?
**A.** 2.46 µM

**Q.** For OCCN1CCN(C(=S)c2ccc(-c3ccccc3)cc2)CC1, which IC50 is on record?
**A.** 1.28 µM

**Q.** For O=C(O)CN1C(=O)/C(=C\c2ccccc2OCc2ccc(Cl)cc2Cl)SC1=S, which IC50 is on record?
**A.** 11 µM (inactive)

**Q.** For CCc1ccc(-c2nc(CSCC(=O)NCc3ccco3)c(C)o2)cc1, which IC50 is on record?
**A.** 6.43 µM

**Q.** With Cc1nc(N2CCC(C(N)=O)CC2)c2c(-c3cccs3)csc2n1 as the compound, how does the IC50 read?
**A.** 3.31 µM

**Q.** For CCOc1ccc(/C=C2\SC(=S)N(CCC(=O)O)C2=O)cc1, which IC50 is on record?
**A.** 2.12 µM

**Q.** With Cc1nn(C(C)(C)C)c(C)c1/C=N/OC(=O)Nc1ccc(Cl)c(Cl)c1 as the compound, how does the IC50 read?
**A.** 2.09 µM

**Q.** For Cn1c(=O)c2[nH]c(COc3ccc(C(C)(C)C)cc3)nc2n(C)c1=O, which IC50 is on record?
**A.** 3.85 µM

**Q.** For CCN(C(=O)c1cc(S(=O)(=O)N2CCCCC2)c[nH]1)c1ccc(OC)cc1, which IC50 is on record?
**A.** 8 µM

**Q.** For O=C(CCC1CCCC1)Nc1ccc(C(=O)NCc2cccnc2)cc1, which IC50 is on record?
**A.** 34.2 µM (inactive)

**Q.** With COc1cccc(/C=N/NC(=O)C(=O)Nc2ccccc2OC(F)(F)C(F)F)c1O as the compound, how does the IC50 read?
**A.** 5.65 µM

**Q.** For NC(=S)NN=Cc1nccc2c(N)cccc12, which IC50 is on record?
**A.** 4.45 µM

**Q.** With Nc1ccn([C@@H]2O[C@H](CO)[C@@H](O)C2O)c(=O)n1 (stereo not given in full) as the compound, how does the IC50 read?
**A.** 7.53 µM

**Q.** For CC(=O)/C(N=Nc1ccc2c(c1)OCCO2)=C(\C)O, which IC50 is on record?
**A.** 3.11 µM

**Q.** Which IC50 does the source give for CN(C)C=Nc1c(C(=O)c2ccccc2)sc2nccc(N(C)C)c12 here?
**A.** 6.82 µM
